Test results from patent US9695155B2, “Herbicidal substituted pyrimidinyloxy benzene compounds” (E. I. DU PONT DE NEMOURS AND COMPANY, priority 2013, dated 2017).

What was measured:
barnyardgrass [1] = assay: Test A preemergence; format: in vivo, Echinochloa crus-galli
Outline: (§1)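 Pre- and postemergence greenhouse screen. Soil: loam + sand. Spray carrier: solvent mixture, non-phytotoxic, with surfactant. Post timing at 1–2 leaves, height 2–10 cm. Readout: visual injury on a 0–100 scale roughly 10 days after application, untreated plants as reference.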

kochia [2] = assay: Test A preemergence; format: in vivo, Kochia scoparia; conditions: for Plant response rating, Kochia / Kochia plant response rating: 0 to 100 scale where 0 is no effect and 100 is complete control; for Kochia plant response rating: 500 g ai/ha
Outline: as §1

ragweed [3] = assay: Test A preemergence; format: in vivo, Ambrosia elatior; conditions: for Plant response rating, Ragweed / Ragweed plant response rating: 0 to 100 scale where 0 is no effect and 100 is complete control; for Ragweed plant response rating: 500 g ai/ha
Outline: as §1

Italian ryegrass [4] = assay: Test A preemergence; format: in vivo, Lolium multiflorum; conditions: for Plant response rating, Ryegrass, Italian / Ryegrass, Italian plant response rating: 0 to 100 scale where 0 is no effect and 100 is complete control; for Ryegrass, Italian plant response rating: 500 g ai/ha
Outline: as §1

giant foxtail [5] = assay: Test A preemergence; format: in vivo, Setaria faberii
Outline: as §1

pigweed [6] = assay: Test A preemergence; format: in vivo, Amaranthus retroflexus
Outline: as §1

barnyardgrass [7] = assay: Test A postemergence; format: in vivo, Echinochloa crus-galli; conditions: for Barnyardgrass plant response rating: 125 g ai/ha
Outline: as §1

kochia [8] = assay: Test A postemergence; format: in vivo, Kochia scoparia; conditions: for Kochia plant response rating: 125 g ai/ha
Outline: as §1

ragweed [9] = assay: Test A postemergence; format: in vivo, Ambrosia elatior; conditions: for Ragweed plant response rating: 125 g ai/ha
Outline: as §1

Italian ryegrass [10] = assay: Test A postemergence; format: in vivo, Lolium multiflorum; conditions: for Ryegrass, Italian plant response rating: 125 g ai/ha
Outline: as §1

giant foxtail [11] = assay: Test A postemergence; format: in vivo, Setaria faberii; conditions: for Foxtail, Giant plant response rating: 125 g ai/ha
Outline: as §1

pigweed [12] = assay: Test A postemergence; format: in vivo, Amaranthus retroflexus; conditions: for Pigweed plant response rating: 125 g ai/ha
Outline: as §1

wheat = assay: Test A postemergence; format: in vivo, Triticum aestivum; conditions: for Wheat plant response rating: 125 g ai/ha
Outline: as §1

corn = assay: Test A postemergence; format: in vivo, Zea mays; conditions: for Corn plant response rating: 125 g ai/ha
Outline: as §1

blackgrass = assay: Test A postemergence; format: in vivo, Alopecurus myosuroides; conditions: for Blackgrass plant response rating: 125 g ai/ha
Outline: as §1

galium = assay: Test A postemergence; format: in vivo, Galium aparine; conditions: for Galium plant response rating: 125 g ai/ha
Outline: as §1

rice = assay: Test B flooded paddy test; format: in vivo, Oryza sativa; conditions: Flood, 250 g ai/ha; 0 to 100 scale where 0 is no effect and 100 is complete control
Outline: (§2)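 Plants at 2-leaf stage; pots flooded to 3 cm above soil and compound applied directly into paddy water, depth held throughout. After 13 to 15 days in greenhouse, visual rating versus controls on 0 (no effect) to 100 (complete control) scale.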

sedge, umbrella = assay: Test B flooded paddy test; format: in vivo, Cyperus difformis; conditions: Flood, 250 g ai/ha; 0 to 100 scale where 0 is no effect and 100 is complete control
Outline: as §2

Heteranthera limosa = assay: Test B flooded paddy test; format: in vivo; conditions: Flood, 250 g ai/ha; 0 to 100 scale where 0 is no effect and 100 is complete control
Outline: as §2

barnyardgrass [13] = assay: Test B flooded paddy test; format: in vivo, Echinochloa crus-galli; conditions: Flood, 250 g ai/ha; 0 to 100 scale where 0 is no effect and 100 is complete control
Outline: as §2

[14] = 125 g ai/ha, 0 to 100 scale where 0 is no effect and 100 is complete control
[15] = 31 g ai/ha, 0 to 100 scale, 0 no effect, 100 complete control
[16] = 0 to 100 scale where 0 is no effect and 100 is complete control
[17] = 500 g ai/ha, 0 to 100 scale where 0 is no effect and 100 is complete control
[18] = 31 g ai/ha, 0 to 100 scale where 0 is no effect and 100 is complete control, visual, approximately 10 days
[19] = 31 g ai/ha, visual, approximately 10 days

Structure (SMILES)	Plant response rating, Barnyardgrass (barnyardgrass [1]; [14])	Plant response rating, Kochia (kochia [2]; 125 g ai/ha)	Plant response rating, Ragweed (ragweed [3]; 125 g ai/ha)	Plant response rating, Ryegrass, Italian (Italian ryegrass [4]; 125 g ai/ha)	Plant response rating, Foxtail, Giant (giant foxtail [5]; [14])	Plant response rating, Pigweed (pigweed [6]; [14])	Barnyardgrass plant response rating (barnyardgrass [7]; [16])	Kochia plant response rating (kochia [8]; [16])	Ragweed plant response rating (ragweed [9]; [16])	Ryegrass, Italian plant response rating (Italian ryegrass [10]; [16])	Foxtail, Giant plant response rating (giant foxtail [11]; [16])	Pigweed plant response rating (pigweed [12]; [16])	Wheat plant response rating (wheat; [16])	Corn plant response rating (corn; [16])	Blackgrass plant response rating (blackgrass; [16])	Galium plant response rating (galium; [16])	Plant response rating, Rice (rice)	Plant response rating, Sedge, Umbrella (sedge, umbrella)	Plant response rating, Ducksalad (Heteranthera limosa)	Plant response rating, Barnyardgrass (barnyardgrass [13])	other results
FC(F)Oc1cnn(-c2c(Br)cccc2Oc2ncc(Cl)cn2)c1 [Compound 122]	70	100	0	0	100	100	40	90	30	20	60	100	10	30	80	40	0	75	80	0	Barnyardgrass plant response rating (0 to 100 scale) (barnyardgrass [1]; 31 g ai/ha): 10; Kochia plant response rating (0 to 100 scale) (kochia [2]; 31 g ai/ha): 20; Ragweed plant response rating (0 to 100 scale) (ragweed [3]; 31 g ai/ha): 0; Ryegrass, Italian plant response rating (0 to 100 scale) (Italian ryegrass [4]; 31 g ai/ha): 0; Foxtail, Giant plant response rating (0 to 100 scale) (giant foxtail [5]; 31 g ai/ha): 50; Pigweed plant response rating (0 to 100 scale) (pigweed [6]; 31 g ai/ha): 80; Plant response rating, Barnyardgrass (barnyardgrass [7]; [15]): 10; Plant response rating, Kochia (kochia [8]; [15]): 50; Plant response rating, Ragweed (ragweed [9]; [15]): 10; Plant response rating, Ryegrass, Italian (Italian ryegrass [10]; [15]): 0; Plant response rating, Foxtail, Giant (giant foxtail [11]; [15]): 10; Plant response rating, Pigweed (pigweed [12]; [15]): 70; Plant response rating, Wheat (wheat; [15]): 0; Plant response rating, Corn (corn; [15]): 10; Plant response rating, Blackgrass (blackgrass; [15]): 30; Plant response rating, Galium (galium; [15]): 20
CCCOc1cnn(-c2c(F)cccc2Oc2ncc(Cl)cn2)c1 [Compound 127]	40	0	0	0	60	10	10	30	10	0	20	30	0	10	10	20	0	0	60	0	Barnyardgrass plant response rating (0 to 100 scale) (barnyardgrass [1]; 31 g ai/ha): 0; Kochia plant response rating (0 to 100 scale) (kochia [2]; 31 g ai/ha): 0; Ragweed plant response rating (0 to 100 scale) (ragweed [3]; 31 g ai/ha): 0; Ryegrass, Italian plant response rating (0 to 100 scale) (Italian ryegrass [4]; 31 g ai/ha): 0; Foxtail, Giant plant response rating (0 to 100 scale) (giant foxtail [5]; 31 g ai/ha): 10; Pigweed plant response rating (0 to 100 scale) (pigweed [6]; 31 g ai/ha): 0; Plant response rating, Barnyardgrass (barnyardgrass [7]; [15]): 0; Plant response rating, Kochia (kochia [8]; [15]): 0; Plant response rating, Ragweed (ragweed [9]; [15]): 0; Plant response rating, Ryegrass, Italian (Italian ryegrass [10]; [15]): 0; Plant response rating, Foxtail, Giant (giant foxtail [11]; [15]): 0; Plant response rating, Pigweed (pigweed [12]; [15]): 20; Plant response rating, Wheat (wheat; [15]): 0; Plant response rating, Corn (corn; [15]): 0; Plant response rating, Blackgrass (blackgrass; [15]): 0; Plant response rating, Galium (galium; [15]): 10
CC(C)c1cnc(Oc2cccc(C#N)c2-n2cc(Br)cn2)nc1 [Compound 130]	0	0	0	0	0	0	0	0	0	0	0	0	0	0	0	0	0	0	0	0	Barnyardgrass plant response rating (barnyardgrass [1]; [17]): 0; Kochia plant response rating (kochia [2]): 0; Ragweed plant response rating (ragweed [3]): 0; Ryegrass, Italian plant response rating (Italian ryegrass [4]): 0; Foxtail, Giant plant response rating (giant foxtail [5]; [17]): 0; Pigweed plant response rating (pigweed [6]; [17]): 0; Plant response rating, Barnyardgrass (barnyardgrass [7]; [17]): 0; Plant response rating, Kochia (kochia [8]; [17]): 0; Plant response rating, Ragweed (ragweed [9]; [17]): 0; Plant response rating, Ryegrass, Italian (Italian ryegrass [10]; [17]): 0; Plant response rating, Foxtail, Giant (giant foxtail [11]; [17]): 0; Plant response rating, Pigweed (pigweed [12]; [17]): 0; Plant response rating, Wheat (wheat; [17]): 0; Plant response rating, Corn (corn; [17]): 0; Plant response rating, Blackgrass (blackgrass; [17]): 0; Plant response rating, Galium (galium; [17]): 0
N#Cc1cccc(Oc2ncc(Cl)cn2)c1-n1cc(SC(F)(F)F)cn1 [Compound 143, 3-[(5-chloro-2-pyrimidinyl)oxy]-2-[4-(trifluoromethylthio)-1H-pyrazol-1-yl]-benzonitrile]	30	50	0	0	80	90	0	30	0	0	0	70	0	30	0	30	0	0	40	0	pest or weed control at 500 g/ha (barnyardgrass [1]; Echinochloa crus-galli, pre-emergence, 240 h, 500 g ai/ha, 0 to 100 scale where 0 is no effect and 100 is complete control, read-out: Barnyardgrass plant response rating): 100%; Kochia plant response rating (kochia [2]): 100; Ragweed plant response rating (ragweed [3]): 20; Ryegrass, Italian plant response rating (Italian ryegrass [4]): 20; pest or weed control at 500 g/ha (giant foxtail [5]; Setaria faberi, pre-emergence, 240 h, 500 g ai/ha, 0 to 100 scale where 0 is no effect and 100 is complete control, read-out: Foxtail, Giant plant response rating): 100%; pest or weed control at 500 g/ha (pigweed [6]; Amaranthus retroflexus, pre-emergence, 240 h, 500 g ai/ha, 0 to 100 scale where 0 is no effect and 100 is complete control, read-out: Pigweed plant response rating): 100%; pest or weed control at 500 g/ha (barnyardgrass [7]; Echinochloa crus-galli, post-emergence, 240 h, 500 g ai/ha, 0 to 100 scale where 0 is no effect and 100 is complete control, read-out: Plant response rating, Barnyardgrass): 80%; Plant response rating, Kochia (kochia [8]; [17]): 90; Plant response rating, Ragweed (ragweed [9]; [17]): 100; Plant response rating, Ryegrass, Italian (Italian ryegrass [10]; [17]): 90; pest or weed control at 500 g/ha (giant foxtail [11]; Setaria faberi, post-emergence, 240 h, 500 g ai/ha, 0 to 100 scale where 0 is no effect and 100 is complete control, read-out: Plant response rating, Foxtail, Giant): 100%; pest or weed control at 500 g/ha (pigweed [12]; Amaranthus retroflexus, post-emergence, 500 g ai/ha, 0 to 100 scale where 0 is no effect and 100 is complete control, read-out: Plant response rating, Pigweed): 100%; Plant response rating, Wheat (wheat; [17]): 30; Corn plant response rating (crop injury, 0 = no effect, 100 = complete kill) at 500 g/ha (corn; Zea mays, post-emergence, 240 h, 500 g ai/ha, 0 to 100 scale where 0 is no effect and 100 is complete control): 40%; Plant response rating, Blackgrass (blackgrass; [17]): 90; Plant response rating, Galium (galium; [17]): 100
N#Cc1cnn(-c2c(Cl)cccc2Oc2ncc(Cl)cn2)c1 [Compound 144]	90	100	100	20	100	100	90	100	80	50	100	100	20	40	90	90	0	80	95	0	Plant response rating, Barnyardgrass (barnyardgrass [1]; [18]): 20; Plant response rating, Kochia (kochia [2]; [19]): 70; Plant response rating, Ragweed (ragweed [3]; [19]): 0; Plant response rating, Ryegrass, Italian (Italian ryegrass [4]; [19]): 20; Plant response rating, Foxtail, Giant (giant foxtail [5]; [18]): 70; Plant response rating, Pigweed (pigweed [6]; [18]): 90; Plant response rating, Barnyardgrass (barnyardgrass [7]; [15]): 20; Plant response rating, Kochia (kochia [8]; [15]): 50; Plant response rating, Ragweed (ragweed [9]; [15]): 20; Plant response rating, Ryegrass, Italian (Italian ryegrass [10]; [15]): 0; Plant response rating, Foxtail, Giant (giant foxtail [11]; [15]): 20; Plant response rating, Pigweed (pigweed [12]; [15]): 80; Plant response rating, Wheat (wheat; [15]): 20; Plant response rating, Corn (corn; [15]): 20; Plant response rating, Blackgrass (blackgrass; [15]): 20; Plant response rating, Galium (galium; [15]): 80
